From patent US20250188080A1, “IMIDAZOLONYLQUINOLINE COMPOUNDS AND THERAPEUTIC USES THEREOF” (Merck Patent GmbH, priority 2019, published 2025) come the findings set out here.

Data set [1] deals with pDNA-PK (Cellular mechanistic DNA-PK, HCT-116). In words: pDNA-PK cellular assay. It counts as cell-based, human. To be noted: HCT-116, 10 μM bleomycin. How it is done:
HCT116 cells are cultured in MEM alpha medium with 10% fetal calf serum and 2 mM glutamine at 37° C. and 10% CO2. The cells were detached from the bottom of the culture vessels using trypsin/EDTA, centrifuged in centrifuge tubes, taken up in fresh medium and the cell density was determined. 100,000 cells were seeded in 1 ml of culture medium per well of a 24-well cell culture plate and cultured overnight. The next day, 10 μM bleomycin (DNA intercalator and DNA double-strand breaker inducer) and the test substances in fresh culture medium were added to the cells and cultured for a further six hours. Cell lysis was then performed and the cell lysates were spotted on a 96-well ELISA plate (Sigma-Aldrich WH0005591M2: total DNA-PK, Abcam ab18192 or Epitomics EM09912: phospho-serine 2056 DNA-PK), which was blocked and coated with DNA-PK specific antibody, and incubated at 4° C. overnight. Subsequently, the 96-well ELISA plates were treated with a detection antibody (Abcam ab79444: total DNA-PK) and a streptavidin-HRP conjugate. The development of the enzymatic reaction was carried out using a chemiluminescent reagent, the chemiluminescence was measured using the Mithras LB940. The signals with the phospho-DNA-PK specific antibody were normalized to the signal with the antibody against the whole protein DNA-PKc. […] The DMSO control was used as blank.

Data set [2] is described as follows: Solubility in biological buffer solutions. It counts as physicochemical. The procedure:
Levels of dissolved compound/form were analysed by HPLC, with the following conditions: • Column: Chromolith RP-18e 100-3 mm • Solvent A: water/formic acid (999:1; v/v) • Solvent B: acetonitrile/formic acid (999:1; v/v) • Injection volume: 5 μL • Column temperature: 37° C. • HPLC-Gradient: […]

Data set [3] in a line: Microsomal stability (intrinsic clearance), rat. The following applies: for microsomal CLint: liver microsomes. It counts as in vitro ADME. The text has this:
A microsomal stability assay is used to measure in vitro clearance (Clint). The assay involves measuring the rate of disappearance of a compound due to its intrinsic attitude to be metabolized (“intrinsic” meaning that the disappearance is not affected by other properties like permeability, binding etc. that play a role when quantifying in vivo clearance). The microsomal stability (intrinsic clearance, Clint) and, thus, metabolic stability is generally given as μl/min/mg protein. It can be visualized as the volume of solution that 1 mg of microsomes is able to clear of the compound in one minute. The microsomal/metabolic stability of each compound was determined by measurement of the change in LC-MS/MS peak area over time. Data are fitted according to a log linear model in line with Michaelis/Menten. The Clint value is calculated from the slope (k) of the linear log transformed concentration per time plot divided by the amount of microsomes (0.5 mg/ml): Clint (μl/min/mg protein)=k*1000/protein concentration. Assay Explorer software was used to automatically calculate the slope k of the decline.
On the technique in general: Liver microsomes are vesicles of endoplasmic reticulum, rich in cytochrome P450 enzymes.

Data set [4] addresses T1, human ATR/ATRIP (Homo sapiens, UniProt Q13535).
T1 construct: human ATR, full length, GenBank ID: NM_001184.3; host or cells: mammalian cell line (ATR/ATRIP co-expressed); Sf21 insect cells (p53)
In words: ATR/ATRIP kinase assay. It counts as biochemical. How it is done: The IC50 value was determined by an ATR/ATRIP enzymatic assay. The assay comprises two steps: the enzymatic reaction and the detection step. First, a mixture of ATR/ATRIP protein (Ataxia Telangiectasia and Rad3-related protein/ATR interacting protein), the compound in question at different concentrations, p53 as substrate protein and adenosine triphosphate (ATP) are incubated in assay buffer. ATR phosphorylates p53 at Ser15 and other residues. The amount of phosphorylated p53 is then detected using specific antibodies and the TR-FRET assay technology.
In detail: The ATR/ATRIP enzymatic assay is performed as a TR-FRET-(HTRF™, Cisbio Bioassays) based 384-well assay. In a first step, purified human recombinant ATR/ATRIP (human ATR, full length, GenBank ID: NM_001184.3, and human ATRIP, full length, GenBank ID AF451323.1, co-expressed in a mammalian cell line) is incubated in assay buffer for 15 minutes at 22° C. with test compound at different concentrations or without test compound (as a negative control). The assay buffer contains 25 mM HEPES pH 8.0, 10 mM Mg(CH3COO)2, 1 mM MnCl2, 0.1% BSA, 0.01% Brij® 35, and 5 mM dithiothreitol (DTT). […] The generation of phosphorylated p53 as a result of the ATR mediated reaction in the presence of ATP is detected by using specific antibodies [labeled with the fluorophores europium (Eu) as donor and d2 as acceptor (Cisbio Bioassays)] enabling FRET. […] Following signal development for 2 h the plates are analyzed in an EnVision (PerkinElmer) microplate reader using the TRF mode with laser excitation. Upon excitation of the donor europium at 340 nm the emitted fluorescence light of the acceptor d2 at 665 nm as well as from the donor Eu at 615 nm are measured. The amount of phosphorylated p53 is directly proportional to the ratio of the amounts of emitted light i.e. the ratio of the relative fluorescence units (rfu) at 665 nm and 615 nm. […] In particular, IC50 values are determined in the usual manner by fitting a dose-response curve to the data points using nonlinear regression analysis.

The mark [5] stands for this setting: FaSSIF, pH 6.5, fassif, FaSSiF, pH 6.5, read-out: Solubility FaSSiF, pH 6.5.
The mark [6] stands for this setting: FeSSIF, pH 5, fessif, FeSSiF, pH 5.0, read-out: Solubility FeSSiF, pH 5.0.
The mark [7] stands for this setting: PBS, pH 7.4, aqueous buffer, PBS, pH 7.4, read-out: Solubility PBS, pH 7.4.

In brackets after ≈: the same amount, converted by molar mass. Like-named read-outs stand apart in the source and are kept apart here. Some results are limits rather than exact numbers.

T1 sequence (Q13535 whole entry): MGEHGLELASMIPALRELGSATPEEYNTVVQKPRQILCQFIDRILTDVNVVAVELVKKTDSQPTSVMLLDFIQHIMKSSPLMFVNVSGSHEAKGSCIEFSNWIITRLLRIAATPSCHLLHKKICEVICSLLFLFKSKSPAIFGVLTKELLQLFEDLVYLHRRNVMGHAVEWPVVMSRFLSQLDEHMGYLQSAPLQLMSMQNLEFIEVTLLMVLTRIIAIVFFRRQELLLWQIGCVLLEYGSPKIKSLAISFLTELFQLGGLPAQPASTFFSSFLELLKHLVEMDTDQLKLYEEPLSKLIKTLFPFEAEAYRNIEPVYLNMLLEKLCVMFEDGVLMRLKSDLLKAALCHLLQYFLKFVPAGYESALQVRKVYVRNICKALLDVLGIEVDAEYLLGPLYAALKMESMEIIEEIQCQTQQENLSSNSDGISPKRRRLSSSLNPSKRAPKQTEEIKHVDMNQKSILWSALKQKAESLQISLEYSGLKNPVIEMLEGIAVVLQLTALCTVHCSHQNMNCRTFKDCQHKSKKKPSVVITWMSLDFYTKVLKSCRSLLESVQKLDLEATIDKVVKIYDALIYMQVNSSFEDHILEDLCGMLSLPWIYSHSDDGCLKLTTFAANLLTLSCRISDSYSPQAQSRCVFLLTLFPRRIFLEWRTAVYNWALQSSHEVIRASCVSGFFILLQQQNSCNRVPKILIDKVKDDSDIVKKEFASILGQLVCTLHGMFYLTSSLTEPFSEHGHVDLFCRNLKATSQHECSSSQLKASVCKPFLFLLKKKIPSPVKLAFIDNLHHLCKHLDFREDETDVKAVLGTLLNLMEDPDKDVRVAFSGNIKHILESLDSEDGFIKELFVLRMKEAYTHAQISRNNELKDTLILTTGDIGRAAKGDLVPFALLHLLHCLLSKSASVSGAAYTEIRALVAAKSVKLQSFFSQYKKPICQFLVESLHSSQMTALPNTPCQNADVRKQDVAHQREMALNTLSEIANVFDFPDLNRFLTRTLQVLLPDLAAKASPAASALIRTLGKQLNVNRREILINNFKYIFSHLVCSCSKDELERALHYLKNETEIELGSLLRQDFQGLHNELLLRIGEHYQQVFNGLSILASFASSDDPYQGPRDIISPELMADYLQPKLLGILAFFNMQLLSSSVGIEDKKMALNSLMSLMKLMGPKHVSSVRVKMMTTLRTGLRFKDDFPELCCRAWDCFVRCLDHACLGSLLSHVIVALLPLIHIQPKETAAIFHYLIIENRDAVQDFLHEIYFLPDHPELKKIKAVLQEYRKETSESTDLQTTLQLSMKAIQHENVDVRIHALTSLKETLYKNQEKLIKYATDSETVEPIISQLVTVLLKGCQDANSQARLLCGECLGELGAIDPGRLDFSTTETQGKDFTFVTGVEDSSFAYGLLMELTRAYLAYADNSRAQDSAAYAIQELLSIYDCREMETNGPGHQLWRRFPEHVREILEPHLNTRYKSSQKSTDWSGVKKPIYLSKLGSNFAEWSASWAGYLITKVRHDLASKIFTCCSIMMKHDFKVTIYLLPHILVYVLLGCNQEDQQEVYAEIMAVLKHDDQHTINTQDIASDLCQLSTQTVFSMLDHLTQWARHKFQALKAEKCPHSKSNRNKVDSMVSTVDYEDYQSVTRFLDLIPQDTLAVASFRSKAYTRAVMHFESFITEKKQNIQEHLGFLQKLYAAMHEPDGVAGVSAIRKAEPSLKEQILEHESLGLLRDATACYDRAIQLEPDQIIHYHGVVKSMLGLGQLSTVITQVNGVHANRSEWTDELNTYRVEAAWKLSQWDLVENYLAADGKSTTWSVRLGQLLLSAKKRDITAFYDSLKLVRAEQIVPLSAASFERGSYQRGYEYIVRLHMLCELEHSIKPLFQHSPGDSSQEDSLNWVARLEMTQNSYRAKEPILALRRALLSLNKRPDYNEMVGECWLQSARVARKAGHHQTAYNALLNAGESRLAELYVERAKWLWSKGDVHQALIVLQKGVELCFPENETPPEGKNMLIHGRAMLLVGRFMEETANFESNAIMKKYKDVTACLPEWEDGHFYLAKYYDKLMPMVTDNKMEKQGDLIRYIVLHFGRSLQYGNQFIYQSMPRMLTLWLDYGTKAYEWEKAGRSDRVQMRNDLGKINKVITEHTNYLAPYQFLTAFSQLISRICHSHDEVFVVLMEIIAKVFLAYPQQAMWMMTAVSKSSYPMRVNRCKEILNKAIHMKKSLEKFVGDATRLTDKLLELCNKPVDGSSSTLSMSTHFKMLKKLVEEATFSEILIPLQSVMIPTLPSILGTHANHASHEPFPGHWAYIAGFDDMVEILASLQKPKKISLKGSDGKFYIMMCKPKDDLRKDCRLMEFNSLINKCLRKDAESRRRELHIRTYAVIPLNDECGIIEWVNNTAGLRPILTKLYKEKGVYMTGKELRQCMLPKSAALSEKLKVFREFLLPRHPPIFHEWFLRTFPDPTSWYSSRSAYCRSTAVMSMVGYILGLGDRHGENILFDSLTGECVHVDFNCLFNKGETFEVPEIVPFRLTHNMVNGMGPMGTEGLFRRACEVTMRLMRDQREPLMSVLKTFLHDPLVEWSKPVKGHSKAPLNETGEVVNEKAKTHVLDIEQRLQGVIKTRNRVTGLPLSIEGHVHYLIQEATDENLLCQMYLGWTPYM
T1 sequence (Q8WXE1 whole entry partner): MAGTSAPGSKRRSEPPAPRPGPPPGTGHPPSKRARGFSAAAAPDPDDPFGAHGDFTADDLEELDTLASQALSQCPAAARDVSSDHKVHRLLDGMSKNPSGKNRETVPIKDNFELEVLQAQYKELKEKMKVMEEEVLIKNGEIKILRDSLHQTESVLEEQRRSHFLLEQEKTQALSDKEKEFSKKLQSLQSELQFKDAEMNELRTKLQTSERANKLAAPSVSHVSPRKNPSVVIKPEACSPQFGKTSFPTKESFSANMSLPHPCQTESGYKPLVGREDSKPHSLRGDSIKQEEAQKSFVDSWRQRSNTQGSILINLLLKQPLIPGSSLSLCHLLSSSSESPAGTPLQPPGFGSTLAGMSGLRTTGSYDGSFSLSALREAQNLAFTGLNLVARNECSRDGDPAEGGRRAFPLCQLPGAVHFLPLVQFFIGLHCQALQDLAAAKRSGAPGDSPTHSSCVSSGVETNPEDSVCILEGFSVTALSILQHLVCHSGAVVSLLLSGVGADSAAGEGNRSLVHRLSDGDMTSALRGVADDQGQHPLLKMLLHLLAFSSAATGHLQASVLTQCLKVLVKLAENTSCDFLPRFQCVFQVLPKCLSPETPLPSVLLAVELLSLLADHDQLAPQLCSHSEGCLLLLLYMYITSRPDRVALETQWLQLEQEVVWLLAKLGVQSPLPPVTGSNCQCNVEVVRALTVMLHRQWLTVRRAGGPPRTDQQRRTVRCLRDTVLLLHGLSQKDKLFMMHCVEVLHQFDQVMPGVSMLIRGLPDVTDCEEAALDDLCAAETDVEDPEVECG

Consider `COc1cc2ncc3c(c2cc1-c1cn(C)nc1C)n(-c1c(F)cncc1OC)c(=O)n3C` (single isomer, unassigned) [Compound 2, 8-(1,3-Dimethyl-1H-pyrazol-4-yl)-1-(Ra)-(3-fluoro-5-methoxy-pyridin-4-yl)-7-methoxy-3-methyl-1,3-dihydro-imidazo[4,5-c]quinolin-2-one], for which the values for the IC50 in data set [1] and in data set [4] were over 30 µM and over 28 µM, respectively. For the same compound, in data set [2] (FaSSiF, pH 6.5), the “Solubility FaSSiF, pH 6.5” value was found to be 216 μg/ml. The “Solubility FeSSiF, pH 5.0” value in data set [2] (FeSSiF, pH 5.0) is reported as about 800 μg/ml. The “Solubility PBS, pH 7.4” value in data set [2] (PBS, pH 7.4) is reported as about 100 μg/ml. Further, the “CLint (rat)” value in data set [3] (rat microsomes) was under 10 μl/min/mg protein.

`COc1cc2ncc3c(c2cc1-c1cn(C)nc1C)n(-c1c(F)cncc1OC)c(=O)n3C` (single isomer, unassigned) [Compound 1, 8-(1,3-Dimethyl-1H-pyrazol-4-yl)-1-(Sa)-(3-fluoro-5-methoxy-pyridin-4-yl)-7-methoxy-3-methyl-1,3-dihydro-imidazo[4,5-c]quinolin-2-one]: the IC50 in data set [1] (Homo sapiens) is over 30 µM; in data set [4], 10 µM. Besides, the values for the solubility in data set [2] (setting [5]), in data set [2] (setting [6]) and in data set [2] (setting [7]) were 242 µg/mL (≈ 540 µM), 731 µg/mL (≈ 1630 µM) and about 100 µg/mL (≈ 223 µM), respectively. In data set [3], this compound registered a microsomal CLint of under 10 µL/min/mg.

Regarding `COc1cc2ncc3c(c2cc1-c1cn(C)nc1C)n(-c1c(F)cncc1OC)c(=O)n3C` [Compound Y, 8-(1,3-dimethyl-1H-pyrazol-4-yl)-1-(3-fluoro-5-methoxypyridin-4-yl)-7-methoxy-3-methyl-1,3-dihydroimidazo[4,5-c]quinolin-2-one, reference compound], the IC50 is over 30 µM in data set [1] (Homo sapiens) and 5.06 µM in data set [4]. For the same compound, the solubility in data set [2] (setting [5]) was determined as 52 µg/mL (≈ 116 µM); in data set [2] (setting [6]), 201 µg/mL (≈ 448 µM); in data set [2] (setting [7]), 19 µg/mL (≈ 42.4 µM). Besides, the microsomal CLint in data set [3] is 19 µL/min/mg.

By IC50 is commonly meant the concentration needed to halve the response being measured. A lower IC50 goes with greater potency in that assay. What is called solubility is the concentration that dissolves in the medium under given conditions. In general, microsomal CLint refers to the capacity of the preparation to metabolise the compound, expressed as a volume cleared per time. The low end stands for slow turnover, the high end for rapid turnover.
